The record followed here is ChEMBL document CHEMBL4706519, “Evaluation of N-phenyl-2-aminothiazoles for treatment of multi-drug resistant and intracellular Staphylococcus aureus infections” (Eur J Med Chem, 2020).

Converted amounts (≈) assume the structure as drawn.

Assay [1] has as its system Staphylococcus aureus. Put plainly: Antibacterial activity against vancomycin-resistant Staphylococcus aureus 10 assessed as inhibition of bacterial growth measured after 18 to 20 hrs by CLSI protocol based broth microdilution method. The class given is functional. The conditions noted are these: time 18-20 hrs. In general terms: In broth dilution the organism is exposed to a series of concentrations in liquid medium.

The subject of assay [2] is Staphylococcus aureus. Put plainly: Antibacterial activity against vancomycin-resistant Staphylococcus aureus 12 assessed as inhibition of bacterial growth measured after 18 to 20 hrs by CLSI protocol based broth microdilution method. The class given is functional. The conditions noted are these: time 18-20 hrs.
The subject of assay [3] is Staphylococcus epidermidis. Put plainly: Antibacterial activity against methicillin-resistant Staphylococcus epidermidis NRS101 assessed as inhibition of bacterial growth measured after 18 to 20 hrs by CLSI protocol based broth microdilution method. The class given is functional. Conditions: time 18-20 hrs.
For assay [4], the system named is Enterococcus faecium. Put plainly: Antibacterial activity against vancomycin-resistant Enterococcus faecium ATCC 700221 assessed as inhibition of bacterial growth measured after 18 to 20 hrs by CLSI protocol based broth microdilution method. The conditions noted are these: time 18-20 hrs. The format is functional.
Assay [5] has as its system Listeria monocytogenes. Put plainly: Antibacterial activity against Listeria monocytogenes ATCC 19111 assessed as inhibition of bacterial growth measured after 18 to 20 hrs by CLSI protocol based broth microdilution method. The class given is functional. Conditions: time 18-20 hrs.
Assay [6] deals with Streptococcus pneumoniae. Put plainly: Antibacterial activity against cephalosporin-resistant Streptococcus pneumoniae ATCC 51916 assessed as inhibition of bacterial growth measured after 18 to 20 hrs by CLSI protocol based broth microdilution method. The format is functional. Conditions: time 18-20 hrs.
Assay [7] concerns Streptococcus pneumoniae. Put plainly: Antibacterial activity against methicillin-resistant Streptococcus pneumoniae ATCC 700677 assessed as inhibition of bacterial growth measured after 18 to 20 hrs by CLSI protocol based broth microdilution method. The class given is functional. The conditions noted are these: time 18-20 hrs.
Assay [8] relates to Staphylococcus aureus. The assay is described as follows: microbe, parasite or virus in culture. The conditions noted are these: ATCC 6538.
Assay [9] relates to Staphylococcus aureus. Put plainly: microbe, parasite or virus in culture. Conditions: NRS107.
Assay [10] deals with Staphylococcus aureus. Put plainly: microbe, parasite or virus in culture. The conditions noted are these: NRS119.
In assay [11] the test system is Staphylococcus aureus. The assay is described as follows: microbe, parasite or virus in culture. Conditions: USA400 NRS123.
In assay [12] the test system is Staphylococcus aureus. The assay is described as follows: microbe, parasite or virus in culture. The conditions noted are these: USA500 NRS385.
Assay [13] concerns Staphylococcus aureus. Put plainly: microbe, parasite or virus in culture. Conditions: USA700 NRS386.
Assay [14] relates to Enterococcus faecalis. The assay is described as follows: microbe, parasite or virus in culture. Conditions: ATCC 51299.
Assay [15] relates to Staphylococcus aureus. Put plainly: Bactericidal activity against methicillin-resistant Staphylococcus aureus USA400 NRS123 assessed as post-antibiotic effect at 5 times MIC incubated for 2 hrs followed by compound wash-out by viable plate count method. The class given is functional.

Take `CC(=O)NC[C@H]1CN(c2ccc(N3CCOCC3)c(F)c2)C(=O)O1` [LINEZOLID]: the MBC in assay [1] was over 64 µg/mL; in assay [2], 64 µg/mL (≈ 190 µM); in assay [3] it was 16 µg/mL (≈ 47.4 µM); in assay [4] it was 16 µg/mL (≈ 47.4 µM); in assay [5] it was 16 µg/mL (≈ 47.4 µM); in assay [6] it was 32 µg/mL (≈ 94.9 µM). The MBC in [7] was 16 µg/mL (≈ 47.4 µM); in [8], 16 µg/mL (≈ 47.4 µM); in assay [9], 64 µg/mL (≈ 190 µM); in assay [10], over 64 µg/mL; in [11] it was 32 µg/mL (≈ 94.9 µM); in [12], 32 µg/mL (≈ 94.9 µM). The MBC turned out to be 64 µg/mL (≈ 190 µM) in assay [13] and 16 µg/mL (≈ 47.4 µM) in assay [14]. In addition, the MIC in [1] was 1 µg/mL (≈ 2.96 µM); in [2] it was 1 µg/mL (≈ 2.96 µM); in assay [3] it was 1 µg/mL (≈ 2.96 µM); in [4], 1 µg/mL (≈ 2.96 µM); in [5] it was at most 0.5 µg/mL; in [8], 1 µg/mL (≈ 2.96 µM). For the same molecule, the MIC in assay [9] was found to be 1 µg/mL (≈ 2.96 µM); in [10], 64 µg/mL (≈ 190 µM); in assay [11] it was 1 µg/mL (≈ 2.96 µM); in assay [12], 1 µg/mL (≈ 2.96 µM).

For `CN[C@H](CC(C)C)C(=O)N[C@H]1C(=O)N[C@@H](CC(N)=O)C(=O)N[C@H]2C(=O)N[C@H]3C(=O)N[C@H](C(=O)N[C@H](C(=O)O)c4cc(O)cc(O)c4-c4cc3ccc4O)[C@H](O)c3ccc(c(Cl)c3)Oc3cc2cc(c3O[C@@H]2O[C@H](CO)[C@@H](O)[C@H](O)[C@H]2O[C@H]2C[C@](C)(N)[C@H](O)[C@H](C)O2)Oc2ccc(cc2Cl)[C@H]1O` [VANCOMYCIN], the MBC is over 64 µg/mL in [1]; 64 µg/mL (≈ 44.2 µM) in [2]; 2 µg/mL (≈ 1.38 µM) in [3]; over 64 µg/mL in [4]; 2 µg/mL (≈ 1.38 µM) in [8]; 2 µg/mL (≈ 1.38 µM) in assay [9]. Besides, the MBC turned out to be 2 µg/mL (≈ 1.38 µM) in [10]; 1 µg/mL (≈ 0.69 µM) in [11]; 1 µg/mL (≈ 0.69 µM) in [12]; 1 µg/mL (≈ 0.69 µM) in [13]; 64 µg/mL (≈ 44.2 µM) in assay [14]. Moreover, the MIC is 64 µg/mL (≈ 44.2 µM) in assay [1]; 64 µg/mL (≈ 44.2 µM) in assay [2]; over 64 µg/mL in assay [4]; 1 µg/mL (≈ 0.69 µM) in assay [5]; 1 µg/mL (≈ 0.69 µM) in assay [6]; 2 µg/mL (≈ 1.38 µM) in assay [7]. The molecule further yielded an MIC in assay [14] of 32 µg/mL (≈ 22.1 µM). Moreover, the PAE in assay [15] amounted to 2 h.
